In patent US20220347299A1, “FLUORESCENT SYSTEMS FOR BIOLOGICAL IMAGING AND USES THEREOF” (LIGHTOX LIMITED, priority 2019, published 2022):

Tests used:
[1] = system: HaCaT keratinocytes; test: Co-staining with organelle markers, co-localisation (PCC); format: cell-based; conditions: 1 μM compound, 30 minutes, BODIPY ER-Tracker Red
Procedure: To study the localisation of compounds in biological cells, co-staining of compounds of formula I with specific organelle markers (fluorescent dyes and antibodies) within biological cells was conducted. The following compounds were studied: compounds 6, 7, 12, 13, 14 and 15. HaCaT keratinocyte cell lines were used for the following experimental procedures. The cells were incubated in cell culture media (94% Dulbecco's Modified Eagle Medium (DMEM), 5% Foetal Bovine Serum (FBS) and 1% Penicillin Streptomycin solution (Pen-Strep). The cells were plated in 8-well plates, at a concentration of 25,000 cells per ml. 200 μl of cell suspension was added to each well, and the cells were incubated for 2 days before staining and imaging was carried out. In order to visualise the mitochondria, cells were probed with the mitochondrial dye MitoTracker® Deep Red. Cells to be stained were incubated with 200 μl MitoTracker® Deep Red solution (200 nM MitoTracker® and 1 μM Formula I compound in cell culture media) per well (N=3) for 30 minutes. Nile Red was used to identify lipids within the cells. 200 μl Nile Red Lipophilic dye (10 μg/ml Nile Red and 1 μM Formula I compound in cell culture media) was added to each well (N=3) and incubated for 30 minutes. For the detection of lysosomes within the cells, LysoTracker® Red DND-99 dye was used. 200 μl LysoTracker® Red DND-99 (50 nM LysoTracker® and 1 μM Formula I compound solution in cell culture media) was added to each well (N=3) and incubated for 30 minutes. For visualisation of the endoplasmic reticulum (ER), cells were stained with BODIPY® ER-Tracker® Red. 200 μl BODIPY ER-Tracker® Red (1 μM BODIPY® and 1 μM Formula I compound solution in cell culture media) was added to each well (N=3) and incubated for 30 minutes. Following incubation, the cell culture media containing dye was removed, and cells were washed twice with 200 μl phosphate buffered saline (PBS). After washing, 200 μl PBS was added into each well for imaging. For visualisation of the nuclear lamina, cells were probed with an anti-lamin A/C antibody. The cells were plated on 22×22 mm cover slips (10,000 cells/ml) and incubated for 2 days before staining. The cells were washed with PBS to remove excess media before staining. The cells were fixed with 4% paraformaldehyde (PFA) for 10 minutes at room temperature, before being washed twice in PBS for 5 minutes. Following washing, the cells were permeabilised in 0.4% Triton X-100 in PBS for 10 minutes. The cells were subsequently washed three times in PBS for 5 minutes, before being incubated in blocking buffer (1% BSA, 0.1% fish gelatine and 0.1% Triton X-100 in PBS) for 15 minutes at room temperature. The cells were incubated in primary antibody (mouse anti-lamin A/C IgG in blocking buffer) for 1 hour at room temperature. The cells were then washed twice in blocking buffer and incubated in secondary antibody (anti-mouse Alexa-594 IgG in blocking buffer) for 30 minutes at room temperature. Cells were washed twice in PBS for 10 minutes at room temperature. For cell staining with compounds of formula I, 5 μM of the compound of formula I in PBS was added to the cells for 30 minutes at room temperature. Cells were then washed five times for 5 minutes in PBS. Following washing, the cells were mounted onto non-charged microscopy slides using 6 μl Mowiol® per cover slip as mounting media. A Zeiss 880 confocal microscope was used for all the imaging work. [table] Image) Coloc2 software was used to calculate co-localization statistics between the compounds of formula I and the organelle marker images. The background was subtracted from each image and a region of interest (ROI) was used to target the analysis. The point spread function (PSF) of each image was calculated as 2.0 and Coastes' iterations was set to 100. The statistic quantified was the Pearson's Correlation Coefficient (PCC). PCC gives a number ranging from +1 to −1:1=perfect co-localisation; 0=no relationship; and, −1=perfect anti-co-localisation. […]

[2] = Peak absorption and fluorescence emission wavelengths in solvents; format: physicochemical; conditions: for λem(max)/nm: 100 nM, excitation at peak of absorption; for λabs(max)/nm: 10 μM
Procedure: Peak absorption and fluorescence emission wavelengths of compounds 6, 7, 12, 13, 14, 15, 19, 23, 27, 30 and 34 were measured in a variety of solvents, and the results are shown in Table 1. Absorption measurements were recorded at a concentration of 10 μM, and emission measurements were recorded at a concentration of 100 nM. Emission spectra were recorded with excitation at the peak of absorption (S0→S1).

[3] = system: black-grass cells; test: Cytotoxicity assay (FDA/PI) in black-grass cell suspension culture; format: cell-based
Procedure: 5 mL of black-grass cell suspension culture was treated with 0.1, 1, 5, and 10 μM of compound numbers 7, 14, 12 and 15 for 1 hour at room temperature. Cells treated with 0.1% DMSO were used as a control. Cells were irradiated (˜365 nm) for 5 minutes before being incubated at 25° C., 150 rpm for 24 hours. In addition, the cytotoxicity of the compounds without irradiation was also assessed. Cell viability of five biological replicates for each concentration were determined via fluorescence assay (FDA/PI) assay. Percentage of cell viability was calculated using following formulation:
% viability={live cells (FDA)/(live cells+dead cells)}×100
The statistical analysis of percentage of cell viability was performed through one-way analysis of variance (ANOVA) followed by Tukey HSD posthoc test using SPSS 23 (IBM, Chicago, Ill., USA).

[4] = Photophysical comparison of para- and ortho-substituted compounds in chloroform; format: physicochemical; conditions: for excitation by 405 nm violet excitation laser light source (absorption at this wavelength): Chloroform
Procedure: To compare the photophysical behaviour of para-substituted compounds of the invention with ortho-substituted compounds, compound 73 and reference compound 77 were synthesised in accordance with Example 1:
Solutions of compounds 73 and 77 were prepared at concentrations of 10 μM and 100 nM in chloroform. The absorption spectra of each compound (10 μM) was recorded using a CARY100 UV-Visible spectrometer, from 200-800 nm, and is shown in FIG. 3a after solvent background subtraction. […] Also shown in FIG. 3a is the approximate bandwidth of a 405 nm violet excitation laser light source that is commonplace on fluorescence microscopes used for cellular imaging studies.
To assess this effect and to compare the fluorescence emission properties of 73 and 77, solutions of both compounds in chloroform (100 nM) were excited at both 360 nm and 405 nm. At 360 nm excitation, 73 and 77 were excited with high efficiency since this wavelength is close to the absorption maxima of both compounds.
Both compounds were also excited at 405 nm to compare their respective suitabilities towards imaging using a typical fluorescence microscope.

[5] = 0.1, 1, 5, 10 μM, with and without ~365 nm irradiation 5 minutes, 24 hours

| SMILES | average PCC Value with BODIPY ER-Tracker [1] | λem(max)/nm ([2]; DCM) [nm] | λabs(max)/nm ([2]; DCM) [nm] | λem(max)/nm ([2]; Toluene) [nm] | λabs(max)/nm ([2]; Toluene) [nm] | λem(max)/nm ([2]; Chloroform) [nm] | λabs(max)/nm ([2]; Chloroform) [nm] | also measured |
| --- | --- | --- | --- | --- | --- | --- | --- | --- |
| COC(=O)/C=C/c1ccc(C#Cc2ccc(N3CCNCC3)cc2)cc1 [Compound 7, methyl (2E)-3-(4-{2-[4-(piperazin-1-yl)phenyl]ethynyl}phenyl)prop-2-enoate] | 0.32 | 563 | 362 | 504 | 361 | – | – | black-grass cell viability [3, 5]: did not reduce black-grass cell viability regardless of concentration or irradiation treatment |
| COC(=O)/C=C/c1ccc(C#Cc2ccc(N3CCN(C(C)=O)CC3)cc2)cc1 [Compound 13, methyl (2E)-3-(4-{2-[4-(4-acetylpiperazin-1-yl)phenyl]ethynyl}phenyl) prop-2-enoate] | −0.18 | 547 | 361 | 464 | 358 | – | – | – |
| COC(=O)/C=C/c1ccc(C#Cc2ccc(N3CCN(CCC[P+](c4ccccc4)(c4ccccc4)c4ccccc4)CC3)cc2)cc1.[Br-] [Compound 14, (3-{4-[4-(2-{4-[(1E)-3-methoxy-3-oxoprop-1-en-1-yl]phenyl}ethynyl)phenyl]piperazin-1-yl}propyl)triphenylphosphonium bromide] | 0.68 | 531 | 361 | 506 | 367 | – | – | black-grass cell viability ([3]; 1 μM, also in non-irradiation treatment): significantly reduced; dependence of cytotoxic effect on irradiation ([3]; black-grass cells, ~365 nm, 5 minutes): independent of irradiation |
| COCCN1C(=O)/C(=C/c2ccc(C#Cc3ccc(N4CCNCC4)cc3)cc2)N=C1C [Compound 19, (4Z)-1-(2-methoxyethyl)-2-methyl-4-[(4-{2-[4-(piperazin-1-yl)phenyl]ethynyl}phenyl)methylidene]-4,5-dihydro-1H-imidazol-5-one] | – | – | – | 515 | 403 | 584 | 403 | λabs(max)/nm ([2]; MeOH): 395 nm |
| O=C1/C(=C/c2ccc(C#Cc3ccc(N4CCNCC4)cc3)cc2)N=C(c2ccccc2)N1CCN1CCOCC1 [Compound 23, (4Z)-1-[2-(morpholin-4-yl)ethyl]-2-phenyl-4-[(4-{2-[4-(piperazin-1-yl)phenyl]ethynyl}phenyl)methylidene]-4,5-dihydro-1H-imidazol-5-one] | – | – | – | – | – | 616 | 424 | – |
| NCCN1C(=O)/C(=C/c2ccc(C#Cc3ccc(N4CCC4)cc3)cc2)N=C1c1ccccc1 [Compound 34, (4Z)-1-(2-aminoethyl)-4-[(4-{2-[4-(azetidin-1-yl)phenyl]ethynyl}phenyl)methylidene]-2-phenyl-4,5-dihydro-1H-imidazol-5-one] | – | – | – | – | – | 628 | 432 | – |
| COC(=O)/C=C/c1ccc(C#Cc2ccc(N3CCN(C)CC3)cc2)cn1 [Compound 73, methyl (2E)-3-(5-{2-[4-(4-methylpiperazin-1-yl)phenyl]ethynyl}pyridin-2-yl)prop-2-enoate] | – | – | – | – | – | – | – | excitation by 405 nm violet excitation laser light source (absorption at this wavelength) ([4]; 10 μM): capable of efficient excitation; fluorescence emission at 360 nm excitation, compared to the other compound ([4]; chloroform, 100 nM): substantially stronger fluorescence emission; fluorescence emission at 405 nm excitation ([4]; chloroform, 100 nM): of a similar intensity to excitation at 360 nm; shift of fluorescence emission compared to compound 77 ([4]; chloroform, 100 nM, 360 nm excitation): significant bathochromic shift |
| COC(=O)/C=C/c1ccc(C#Cc2ccccc2N2CCN(C)CC2)cn1 [Compound 77, methyl (2E)-3-(5-{2-[2-(4-methylpiperazin-1-yl)phenyl]ethynyl}pyridin-2-yl)prop-2-enoate, reference compound] | – | – | – | – | – | – | – | excitation by 405 nm violet excitation laser light source (absorption at this wavelength) ([4]; 10 μM): absorbed only very weakly; fluorescence emission at 405 nm excitation ([4]; chloroform, 100 nM): only very weak fluorescence emission; absorption spectrum, ortho-position 77 relative to para-position 73 ([4]; chloroform, 10 μM, 200-800 nm): substantial hypsochromic shift and reduction in extinction coefficient |

Continued, in another order:

| average PCC Value with BODIPY ER-Tracker [1] | λem(max)/nm ([2]; DCM) [nm] | λabs(max)/nm ([2]; DCM) [nm] | λem(max)/nm ([2]; Toluene) [nm] | λabs(max)/nm ([2]; Toluene) [nm] | λem(max)/nm ([2]; Chloroform) [nm] | λabs(max)/nm ([2]; Chloroform) [nm] | SMILES | also measured |
| --- | --- | --- | --- | --- | --- | --- | --- | --- |
| 0.30 | 545 | 377 | 473 | 381 | – | – | COC(=O)/C=C/c1ccc(C#Cc2ccc(N(C)CCNS(=O)(=O)c3ccc(C)cc3)cc2)cc1 [Compound 15, methyl (2E)-3-{4-[2-(4-{methyl[2-(4-methylbenzenesulfonamido)ethyl]amino}phenyl)ethynyl]phenyl}prop-2-enoate] | black-grass cell viability [3, 5]: did not reduce black-grass cell viability regardless of concentration or irradiation treatment |
| – | 524 | 371 | 493 | 380 | – | – | CC(C)(C)OC(=O)/C=C/c1ccc(C#Cc2ccc(N3CCNCC3)cc2)s1 [Compound 27, tert-butyl (2E)-3-(5-{2-[4-(piperazin-1-yl)phenyl]ethynyl}thiophen-2-yl) prop-2-enoate] | – |
| – | – | – | – | – | 535 | 374 | COC(=O)/C=C/c1ccc(C#Cc2ccc(N3CCC3)cc2)cc1 [Compound 30, methyl (2E)-3-(4-{2-[4-(azetidin-1-yl)phenyl]ethynyl}phenyl)prop-2-enoate] | – |
